# Where two headings read alike, the source gives them in different places.
# Legend:
# [1] = rat, in vivo; cited from earlier work
# GBM (in vitro) = conditions: cited from earlier work
# [2] = tested on: T98G (glioblastoma, in vitro); conditions: cited from earlier work
# [3] = in vivo, cited from earlier work
# liver = conditions: normal liver; reported [26, 27, 39]; cited from earlier work
# liver tumours = conditions: reported [26, 27, 39]; cited from earlier work
# [4] = in vivo; cited from earlier work
# glioblastoma cell nuclei = conditions: cited from earlier work
# [5] = in vivo; cited from earlier work; remark: listed apart in the source
# [6] = tested on: T98G (JCRB9041, human glioblastoma multiforme) cell lines; assay: Example 3 T98G cell proliferation (Resazurin/alamarBlue) after carbon or helium ion beam irradiation with neutron capture agents; assay type: cell-based; conditions: 500 μM; for Cell proliferation: 24 h incubation prior to irradiation, up to 168 hours, vs flasks without compound; for radiosensitisation: carbon and helium ion beams
# Description: The approach of the aforementioned embodiments was tested experimentally. A series of proof-of concept experiments were performed at Japan's HIMAC facility, to quantify the effective increase in biological dose which can be achieved in vitro. Cultured T98-G cancer cells adhered to the inner surface of T25 cell culture flasks were irradiated in carbon and helium ion beams, with and without the presence of realistic concentrations of neutron capture agents.
# Three frozen vials of T98G (JCRB9041, human glioblastoma multiforme) cell lines were purchased from the National Institutes of Biomedical Innovation, Health and Nutrition, JCRB Cell Bank and used throughout the experiments.
# Prior to the start of the experiments, the cells were revived and passaged twice prior to seeding 160 T25 flasks, with 5 mL of complete growth medium (DMEM+10% FBS). Flasks were incubated at 37±1° C. in an atmosphere of 5±1% CO2.
# The experiments utilised ^12C and ^4He beams with 60 mm Spread Out Bragg Peak (SOBP60) spectra, and an approximate dose rate of 1 Gy/min. Cell viability was measured as a function of ion beam dose in cultured T98-G human glioblastoma cells, with and without the presence of two neutron capture agents, ^10B enriched 4-borono-L-phenylalanine (^10B-BPA) and 2,2′,2″-(10-(4-(((triphenylphosphonio)methyl)benzyl)-1,4,7,10-tetraazacyclododecane-1,4,7-triyl)triacetatogadolinium(III) trifluoroacetate (157Gd-DOTA-TPP salt complex).
# A set of 300×300×10 mm^3 PMMA slabs were used in conjunction with a PMMA receptacle for holding two flasks. With this arrangement, the flasks containing the cell cultures were positioned inside a cubic 300×300×300 mm^3 PMMA phantom in a plane normal to the incident beam, at a depth corresponding to the midpoint of the SOBP60 as illustrated schematically in FIG. 13. The neutron fluence predicted via Monte Carlo simulation in Example 2 is overlayed on this figure for illustrative purposes. The ion beams were ^12C and ^4He beams with dimensions of 100×100 mm^2 (width×height) and SOBP60 energy spectra with mean energies of 290 MeV/u and 150 MeV/u, respectively (corresponding to SOBP depth ranges of approximately 8 to 14 cm in PMMA).
# The irradiation campaign was conducted on four consecutive nights (carbon ion beam irradiations were conducted on the first and third nights, while helium ion beam irradiations were performed on the second and fourth night) at the HIMAC biological beamline. Forty flasks were irradiated during each night, at 80% to 90% confluence (corresponding to ˜3.75×10^5 cells per flask). Twenty-four hours prior to each irradiation, 10 flasks were incubated with 500 μM of ^10B-BPA, while a second set of 10 flasks were incubated with 500 μM of ^157Gd-DOTA-TPP salt complex. The remaining 20 flasks were used as control.
# On the night of irradiation, the beam was calibrated for dose rate and dose-depth deposition and the dose-rate at the centre of the Bragg peak (corresponding to the location of the cells) was measured with an ionisation chamber. Immediately prior to irradiation, flasks were filled with a complete DMEM media (˜30 mL per flask). Flasks were irradiated in pairs, with flasks containing the neutron capture agents irradiated together, followed by corresponding control flasks (containing no neutron capture agent). Ten different dose values were used with each ion beam: 0, 0.9, 1.8, 2.3, 2.7, 3.2, 3.6, 4.1, 4.6, and 7.3 Gy for helium, and 0, 0.6, 1.3, 1.6, 1.9, 2.2, 2.5, 2.8, 3.1 and 5 Gy for carbon.
# After irradiation, the medium was aseptically removed from the irradiated flasks. Cells were washed with 5 mL of DPBS which was removed and discarded. Cells were then trypsinised, detached from the flasks and resuspended in completed growth medium. Cell count and viability was recorded.
# Sixteen 96-well plates were populated each night, each well containing approximately 375 cells, and each set of three wells corresponding to one flask. […]
# [7] = Example 2 Monte Carlo simulation and treatment plan, neutron capture dose enhancement in PMMA target; conditions: based on photon activated therapy studies with the same agent, corrected for expected Auger electron production
# Description: In a further example, a similar set of simulations was conducted. Significance was arbitrarily defined as an average 10% increase in photon-equivalent dose within a tumour resulting from the administration of a non-toxic bolus of neutron-capture agent (though it is envisaged that the method of this embodiment can be used with any desired dose increase factor). To do so, the concentration of neutron capture agent required to provide a 10% increase in effective photon-equivalent dose is determined for a simple simulated therapeutic proton/heavy ion treatment plan, and this is compared with concentrations reported in the literature.
# The first step is to evaluate the neutron fluence resulting from pencil-beam irradiation of a point within a target volume. […] Dose and neutron fluence distributions were recorded for each simulation; corresponding distributions at energies in between these were also estimated by interpolating between the distributions obtained at these energies. […] The primary particle fluence at each energy was then weighted such that an approximately flat biological effective dose (BED) was delivered to a defined treatment volume by the ion beam; two 50 mm cubic volumes were evaluated, one centred at a depth of 125 mm and a second centred at a depth of 165 mm. […]
# normal tissues = conditions: reported; cited from earlier work
# brain tumour cells = brain tumour cells / brain tumours; reported; cited from earlier work
# [8] = value used in Example 2 dose relation; cited from earlier work
molecule,measurement,setting,value
boron,"values previously published, tumour concentration",[1],up to 231 ppm
O=C([O-])CN(CCN(CC(=O)[O-])CC(=O)O)CCN(CC(=O)[O-])CC(=O)O.[Gd+3] [Gd-DTPA],accumulation within the cell nucleus,GBM (in vitro); reported [40],neither accumulates to significant concentration
O=C([O-])CN1CCN(CC(=O)[O-])CCN(CC(=O)O)CCN(CC(=O)[O-])CC1.[Gd+3] [Gd-DOTA],Concentration (ppM),GBM (in vitro),140 (1 h) ppM
same,accumulation within the cell nucleus,GBM (in vitro),neither accumulates to significant concentration
[Gd] [gadolinium],"values previously published, concentration",[2],up to 3000 ppm
sodium mercaptoundecahydro-closo-dodecaborate [BSH],tumour to healthy tissue concentration ratio,[3],1.2-3.5
same,"CBE, liver",liver,0.94
same,"CBE, tumour",liver tumours,4.22
same,concentration ratio (tumour:normal tissue),[4],0.3
CC(=O)[O-].CC(=O)[O-].CCc1c(CC)c2cc3nc(cnc4cc(OCCOCCOCCOC)c(OCCOCCOCCOC)cc4ncc4nc(cc1[n-]2)C(CCCO)=C4C)C(C)=C3CCCO.O.[Gd+3] [motexafin-gadolinium],prolonged retention of gadolinium in vitro,glioblastoma cell nuclei,up to 2 months
same,uptake in glioblastoma cell nuclei,glioblastoma cell nuclei,90%
same,tumour to healthy tissue uptake ratio,[5],70:1
O=C([O-])C(F)(F)F.O=C([O-])CN1CCN(CC(=O)[O-])CCN(Cc2ccc(C[P+](c3ccccc3)(c3ccccc3)c3ccccc3)cc2)CCN(CC(=O)[O-])CC1.[Gd+3] [^157Gd-DOTA-TPP salt complex],Cell proliferation,[6]; carbon beam 0 to 5 Gy,substantially reduced
same,Cell proliferation,[6]; helium beam,substantially reduced
same,radiosensitisation,[6],clear and substantial radiosensitisation
same,compound biological effectiveness CBE,[7],≈ 40
"N[C@@H](Cc1ccc([10B](O)O)cc1)C(=O)O [BPA, ^10B-4-borono-L-phenylalanine]",CBE,normal tissues,0.9-1.3
same,Cell proliferation,[6]; carbon beam 0 to 5 Gy,substantially reduced
same,Cell proliferation,[6]; helium beam,substantially reduced
same,radiosensitisation,[6],clear and substantial radiosensitisation
same,Concentration (PPM),[3]; iv,30 ± 12 PPM
same,Concentration ratio (tumour to healthy tissue),[3]; iv,5:1 ^
same,highest BPA concentration reported in the literature,[3],125 ppm
same,tumour to healthy tissue concentration ratio,[3],5:1-8:1
same,CBE,brain tumour cells,3.6-3.8
same,"CBE, liver",liver,4.25
same,"CBE, tumour",liver tumours,9.94
same,compound biological effectiveness CBE,[8],3.8
same,concentration ratio (tumour:normal tissue),[4],2.8

# Source: patent US11850449B2, “Irradiation method and system” (priority 2017, dated 2023)
